Key:
Format in all cases: organism-based, Ehrlich
Parameters in all cases: route oral
[1] = test system: Mus musculus; test: Toxicity in Swiss albino mouse bearing mouse EAC cells assessed as hemoglobin level at 50 to 250 mg/kg/day, po after 14 days postimplantation; conditions: in vivo, 336 h
[2] = test system: Mus musculus; test: Toxicity in Swiss albino mouse bearing mouse EAC cells assessed as increase in body weight at 50 to 250 mg/kg/day, po; conditions: in vivo
[3] = test system: Mus musculus; test: Toxicity in Swiss albino mouse bearing mouse EAC cells assessed as mean survival time at 50 to 250 mg/kg/day, po; conditions: in vivo
[4] = test system: Mus musculus; test: Toxicity in Swiss albino mouse bearing mouse EAC cells assessed as hematocrit level at 50 to 250 mg/kg/day, po after 14 days postimplantation; conditions: in vivo, 336 h
[5] = test system: Mus musculus; test: Toxicity in Swiss albino mouse bearing mouse EAC cells assessed as WBC count at 50 to 250 mg/kg/day, po after 14 days postimplantation; conditions: in vivo, 336 h

SMILES | Activity [1] [g/dL] | Activity [2] | MST [3] [days] | Activity [4] [%] | Activity [5]
O=c1[nH]cc(F)c(=O)[nH]1 [FLUOROURACIL] | 10 | Toxic | 16.7 | 42.3 | 13.8
Nc1nn2c(c1/N=N/c1ccc(/N=N/c3ccccc3)cc1)NC(=O)CC2 | 10.9 | Toxic | 17.1 | 43 | 12.8
Nc1n[nH]c(/N=N/c2c(O)ccc3ccccc23)c1/N=N/c1ccc(/N=N/c2ccccc2)cc1 | 10.5 | Toxic | 17.8 | 43.7 | 11.5

— ChEMBL document CHEMBL1155253, “Synthesis, antitumor evaluation, molecular modeling and quantitative structure-activity relationship (QSAR) of some novel arylazopyrazolodiazine and triazine analogs” (Bioorg Med Chem, 2009)
